This is an account of results in patent US20060183794A1, “Drug composition containing nf-kb inhibitor” (priority 2002, published 2006).

Test [1] relates to ATL cell lines (MT-1 and TL-Om1). As to the kind of experiment: MTT assay, proliferation of ATL cell lines. The format is cell-based, human. The method, then: Cells from the ATL cell lines (MT-1 and TL-Om1) and a control cell line (K562) were plated in 96-well plates at 1×10^5 cells/well and DHM2EQ was added at the desired final concentrations (2, 5, and 10 μg/ml). Cells to which the solvent DMSO had been added in equal volume (0 μg/ml) were used as […] incubation for 72 hours, cell viability was judged by the MTT assay. Relative MTT values were obtained as the ratio of the MMT values of DHM2EQ-treated cells to those of DHM2EQ-untreated cells, i.e., (MTT values of DHM2EQ-treated cells/MTT values of DHM2EQ-untreated cells)×100(%).
DHM2EQ was added to the ATL cell lines (MT-1 and TL-Om1) and a control cell line (K562) at a final concentration of 10 μg/ml and the cells were incubated for 12, 24, 48, and 72 hours. The proliferation-inhibitory effect was examined by the MTT assay. Cells to which the solvent DMSO had been added in equal volume were used as controls. Relative MTT values were obtained in the same manner as the aforementioned (1).
(In general: Formazan colour is commonly taken as a measure of viable cells.)

The target of test [2] is NF-κB (Homo sapiens, UniProt P19838+Q04206). Put plainly: Gel shift assay of constitutive NF-κB activation in multiple myeloma cell lines. The format is cell-based. Also on record: endogenous in cells; host or cells: MM cell lines KMM1, RPMI8226, U266. As for the experimental part:
The ATL cell lines (MT-1 and TL-Om1) and the control cell lines (K562 and Jurkat+TNF), 2×10^6 cells each, were treated with 10 μg/ml DHM2EQ for 12 hours, and nuclear extract was prepared from each cell line. Likewise, nuclear extract was prepared also from the cell lines not treated with DHM2EQ. MT-1 and TL-Om1 are the cell lines transformed with HTLV-1; NF-κB is activated in these cell lines. K562 (myelocytic leukemia cell line) is a cell line in which constitutive NF-κB is not confirmed (a negative control), and Jurkat+TNF is a […] consensus oligomers (Promega) were end-labeled with [γ-^32P]-ATP and polynucleotide kinase (PNK) to prepare ^32P-labeled NF-κB probes.
The equivalent of 2 μg of nuclear extract protein was mixed with NF-κB probes (the equivalent of 10,000 cpm) in a volume of 20 μl and reacted at room temperature for 30 min. The solution after the reaction was subjected to 7.5% polyacrylamide gel electrophoresis. The gel was then dried and exposed to an X-ray film.
The MM cell lines, KMM1, RPMI8226, and U266 (2×10^6 cells each) were treated with 10 μg/ml of DHMEQ for 12 hours, and nuclear extract was prepared from each cell line. The gel shift assay was performed in the same method as in Example 4 and the inhibitory effect of DHMEQ on NF-κB was examined. […] The TNF-treated Jurkat (Jurkat+TNF) was used as the positive control.
Next, the MM cell lines, KMM1, RPMI8226, and U266 were treated with 10 μg/ml DHMEQ for 12 hours, and nuclear extract was prepared from each cell line. The gel shift assay was performed in the same method as in Example 4 (1) and the time-course inhibitory effect on NF-κB was examined.
A general note: Mobility shift assays separate free from complexed probe on a gel.

Sequence of NF-κB (Q04206 whole entry): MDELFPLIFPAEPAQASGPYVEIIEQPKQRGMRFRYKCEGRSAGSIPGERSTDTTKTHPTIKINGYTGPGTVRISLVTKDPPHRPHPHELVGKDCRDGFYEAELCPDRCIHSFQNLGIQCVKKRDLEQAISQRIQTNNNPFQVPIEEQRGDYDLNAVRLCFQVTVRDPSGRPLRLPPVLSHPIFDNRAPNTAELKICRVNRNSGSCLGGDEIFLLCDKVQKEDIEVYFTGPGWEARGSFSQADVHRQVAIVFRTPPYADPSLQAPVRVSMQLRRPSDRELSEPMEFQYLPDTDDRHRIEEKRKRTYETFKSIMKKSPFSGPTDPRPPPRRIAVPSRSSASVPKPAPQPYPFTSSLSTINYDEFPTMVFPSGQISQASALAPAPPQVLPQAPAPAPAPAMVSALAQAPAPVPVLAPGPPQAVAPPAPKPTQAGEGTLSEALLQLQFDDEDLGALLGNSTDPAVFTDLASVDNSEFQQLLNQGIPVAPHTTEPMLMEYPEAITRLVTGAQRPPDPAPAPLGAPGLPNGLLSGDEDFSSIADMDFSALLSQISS
Sequence of NF-κB (P19838 1-433 limits assumed): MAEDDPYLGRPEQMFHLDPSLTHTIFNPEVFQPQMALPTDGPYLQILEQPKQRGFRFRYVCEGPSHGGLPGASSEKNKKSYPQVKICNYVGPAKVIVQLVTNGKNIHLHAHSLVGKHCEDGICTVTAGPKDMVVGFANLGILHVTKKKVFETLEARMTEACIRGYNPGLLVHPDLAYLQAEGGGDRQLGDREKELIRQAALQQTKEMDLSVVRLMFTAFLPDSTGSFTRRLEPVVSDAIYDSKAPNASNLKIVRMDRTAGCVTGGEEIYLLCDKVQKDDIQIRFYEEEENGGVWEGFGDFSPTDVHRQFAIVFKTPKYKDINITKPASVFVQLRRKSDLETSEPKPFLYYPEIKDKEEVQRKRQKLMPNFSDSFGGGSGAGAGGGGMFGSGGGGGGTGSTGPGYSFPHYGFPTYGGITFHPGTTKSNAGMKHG

Regarding `O=C(NC1=CC(=O)C2OC2C1O)c1ccccc1O` (centres unmarked) [DHMEQ, 5,6-epoxy-4-hydroxy-3-salicyloylamino-2-cyclohexenone], in test [1] (10 μg/ml, 12, 24, 48, 72 hours), the “cell proliferation, time course (MTT)” value is “inhibited in proportion to the DHM2EQ treatment time”. Further, the “cell proliferation, concentration dependence (MTT)” value in test [1] (2, 5, 10 μg/ml, 72 hours) is given as “inhibited in proportion to the DHM2EQ concentrations added”. In addition, in test [2] (KMM1, RPMI8226, U266, 10 μg/ml DHMEQ, 12 hours), the “signals by NF-κB (gel shift)” value is recorded as “lost”. Moreover, in test [2] (MM cell lines, 10 μg/ml), the “persistence of inhibition of NF-κB activation” value is given as “sustained even after a lapse of 16 hours”. Also, the “activation of NF-κB, time course (gel shift)” value in test [2] (MM cell lines, 10 μg/ml, 1 hour after treatment) is “almost inhibited”.
